Patent publication US7705020B2, “Benzimidazolone carboxylic acid derivatives” (Pfizer Inc., priority 2004, dated 2010)

melting point: 223 °C
SMILES: CC(C)n1c(=O)n(C(=O)NCC2CCN(CC3(C(=O)O)CCOCC3)CC2)c2ccccc21 [Example 1, 4-{[4-({[(3-isopropyl-2-oxo-2,3-dihydro-1H-benzimidazol-1-yl)carbonyl]amino}methyl)piperidin-1-yl]methyl}tetrahydro-2H-pyran-4-carboxylic acid]
